{
  "source": "patent US11684614B2",
  "about": "“Formulations of hydroxypyridonate actinide/lanthanide decorporation agents” (priority 2017, dated 2023)",
  "test": "Repeated-treatment efficacy for removing an intravenous dose of 238Pu (excretion, tissue retention, clinical observations), female and male arms;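 for % Recovered Dose - ART: ART is abdominal tissue remainder with GI tract reproductive organs spleen bladder fat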",
  "assay_type": "in vivo, Swiss-Webster mice",
  "procedure": "The objective of this study was to characterize the efficacy of 3,4,3-L1(1,2-HOPO) at enhancing elimination from an internal plutonium burden in female and male Swiss-Webster mice administered a soluble citrate complex of ^238Pu and treated multiple times, starting at 24 hours after the exposure. Efficacy was evaluated by comparing the tissue contents, urinary and fecal excretions of ^238Pu in treated animals versus untreated animals.\nThe medical countermeasure 3,4,3-L1(1,2-HOPO) was administered parenterally (ip) or orally (po) via consecutive injections or gavages (six daily or twelve twice daily) starting at 24 hours post contamination at the following four selected doses: 30 μmol/kg ip, 150 μmol/kg po, 300 μmol/kg po, and 600 μmol/kg po (equivalent to respective approximate human doses range of […], using the accepted conversion system of mouse doses into human equivalent doses—HED—based on body surface area). Oral doses also included the permeability enhancer selected during formulation development work.\n• Challenge isotope: ^238Pu • Challenge dose: 25 nCi (i.e., approximately 0.8 μCi/kg) • Route of contamination: Intravenous (iv) tail-vein • Route of treatment: Intraperitoneal Injection (ip) or Oral (po) • Frequency of treatment: Multiple (once- or twice-daily for 6 days) doses, starting 24 hr postcontamination • Treatment dose calculation: Dose calculations (mg/kg or μmol/kg) for the decorporation agent were based on the individual body weight measured after contamination. • Study Duration: 11 days, in-life\nc. […] Test article and control dose formulations were prepared within 1 day of dose administration, by weighing out the appropriate amount of test article, dispersing in vehicle. For ip solutions, the test article was used alone, while for oral suspensions, a mixture of test article and excipient (90:10, w:w) was used. The pH was adjusted to 7.0-7.4 for ip administration and 5.0-5.5 for oral administration with sterile NaOH. Dose formulations were prepared at room temperature and filter-sterilized. • Storage: 2-8° C.; refrigerated; protected from light. • Characterization: The concentration of each test article formulation was verified by high-performance liquid chromatography-mass spectrometry. • Test Article Handling: Test, reference, and control article formulations were handled with the use of eye protection, gloves, and a protective laboratory coat. • Correct Dose Assurance: The test article was weighed with calibrated balances. The administration of each dose formulation was properly documented, and the amount administered to each animal recorded.\ne. Experimental Procedures (In-Life Evaluations and Euthanasia) • Contamination: Single administration by intravenous (iv) tail-vein injection (0.2 mL injection volume) under isoflurane anesthesia. Three standard 0.2 mL injections were performed into polyethylene bottles and pre-loaded with aliquots of concentrated nitric acid on each injection day. Six female and six male mice were culled for necropsy 1 hr post-contamination and were used as standards. A11 standards were processed and counted together with the final samples to allow verification of the contamination dose. • Dose Administration: Single administration by intraperitoneal injection (ip) or oral gavage (po) under isoflurane anesthesia. • Mortality/Morbidity: Assessed at least once daily. • Clinical Observations: Recorded once daily (4 hr post-dose on day of treatment), or more often as clinical signs warranted. […]",
  "key": {"[1]": {"settings": "female animals, D-7 necropsy, individual animals, listed as 3,4,3-LI(1,2-HOPO)"}, "[2]": {"settings": "female animals, D-11 necropsy, individual animals, listed as 3,4,3-LI(1,2-HOPO)"}, "[3]": {"settings": "male animals, Day 7 necropsy, animal group B, listed as 3,4,3-LI(1,2-HOPO)"}},
  "note": "Where “and” joins values, the source holds several entries; their conditions need not be identical. Identical values can stand only once.",
  "data": [
    {"compound": "O=C(NCCCN(CCCCN(CCCNC(=O)c1cccc(=O)n1O)C(=O)c1cccc(=O)n1O)C(=O)c1cccc(=O)n1O)c1cccc(=O)n1O", "note": "[3,4,3-L1(1,2-HOPO)]", "values": [
      {"measurement": "% Recovered Dose-Female Animals-Urine per Day-Day 11 Necropsy", "setting": "animal group M, day 11, female mice, listed as 3,4,3-LI(1,2-HOPO)", "value": "0.44% and 0.82% and 0.63% and 0.58% and 0.53% and 1.12% and 0.91% and 0.93%"},
      {"measurement": "238Pu excretion path", "setting": "female and male mice", "value": "predominantly through feces"},
      {"measurement": "adverse effect", "setting": "female and male mice, parenteral or oral, all dose levels", "value": "No adverse effect"},
      {"measurement": "% Recovered Dose - Kidney", "setting": "female animals, D-7 necropsy, individual animals (ID = group letter + number), dose/regimen of group not given, listed as 3,4,3-LI(1,2-HOPO)", "value": "0.27% (2×) and 0.15% and 0.24% (2×) and 0.17% and 0.31% and 0.14% and 0.09% and 0.28% (2×) and 0.43% and 0.12% and 0.21% and 0.22% (2×)"},
      {"measurement": "% Recovered Dose - ART", "setting": "[1]", "value": "1.01% and 1.36% and 1.12% (2×) and 1.30% and 1.21% and 1.29% and 1.37% and 1.20% and 0.98% (2×) and 1.39% and 1.24% (2×) and 1.16% and 1.59%"},
      {"measurement": "% Recovered Dose - Combined Body", "setting": "[1]", "value": "34.79% and 38.75% and 40.32% and 37.43% and 36.37% and 39.78% and 31.50% and 26.07% and 36.12% and 35.98% and 41.72% and 33.15% and 35.58% and 25.26% and 33.24% and 36.43%"},
      {"measurement": "% Recovered Dose - Combined Excreta", "setting": "[1]", "value": "65.21% and 61.25% and 59.68% and 62.57% and 63.63% and 60.22% and 68.50% and 73.93% and 63.88% and 64.02% and 58.28% and 66.85% and 64.42% and 74.74% and 66.76% and 63.57%"},
      {"measurement": "% Recovered Dose - Liver", "setting": "[1]", "value": "8.04% and 11.52% and 14.05% and 17.71% and 5.50% and 9.28% and 7.15% and 5.47% and 15.03% and 5.40% and 15.12% and 5.35% and 15.19% and 6.77% and 11.56% and 16.40%"},
      {"measurement": "% Recovered Dose - SKEL", "setting": "[1]", "value": "23.83% and 24.03% and 23.40% and 16.40% and 28.04% and 26.98% and 21.55% and 17.57% and 18.05% and 27.21% and 23.15% and 24.86% and 17.48% and 15.65% and 19.07% and 16.03%"},
      {"measurement": "% Recovered Dose - SOFT", "setting": "[1]", "value": "1.63% (2×) and 1.69% and 1.50% and 1.75% and 1.54% and 2.00% and 1.36% and 1.57% and 1.61% and 2.12% and 1.58% and 1.55% and 1.38% and 1.41% and 2.13%"},
      {"measurement": "% Recovered Dose - Total Feces", "setting": "[1]", "value": "37.37% and 25.66% and 41.03% and 28.59% and 40.61% and 26.74% and 36.25% and 39.09% and 25.39% and 34.86% and 39.63% and 37.46% and 28.91% and 37.33% and 32.34% and 24.62%"},
      {"measurement": "% Recovered Dose - Total Urine", "setting": "[1]", "value": "27.84% and 35.60% and 18.65% (2×) and 33.98% and 23.02% and 33.48% and 32.25% and 34.83% and 38.49% and 29.16% and 29.39% and 35.51% and 37.41% and 34.43% and 38.95%"},
      {"measurement": "% Recovered Dose - Combined Body", "setting": "[2]", "value": "17.98% and 75.50% and 20.85% and 19.27% and 21.23% and 20.95% and 24.13% and 19.99% and 25.13% and 24.87% and 27.98% and 26.74% and 30.36% and 31.29% and 29.30% and 29.18% and 27.61% and 23.71% and 21.16% and 25.90% and 28.33% and 29.52% and 30.59% and 27.44%"},
      {"measurement": "% Recovered Dose - Combined Excreta", "setting": "[2]", "value": "82.02% and 24.50% and 79.15% and 80.73% and 78.77% and 79.05% and 75.87% and 80.01% and 74.87% and 75.13% and 72.02% and 73.26% and 69.64% and 68.71% and 70.70% and 70.82% and 72.39% and 76.29% and 78.84% and 74.10% and 71.67% and 70.48% and 69.41% and 72.56%"},
      {"measurement": "% Recovered Dose - GI Tract", "setting": "[2]", "value": "0.65% and 1.84% and 0.77% and 0.48% and 0.55% and 0.52% and 0.62% and 0.54% and 0.97% and 0.80% (2×) and 1.10% and 0.99% and 0.95% and 1.50% and 0.96% and 0.87% and 0.70% and 0.91% and 0.68% and 0.50% and 1.19% and 0.81% and 1.03%"},
      {"measurement": "% Recovered Dose - Kidney", "setting": "[2]", "value": "0.09% and 1.35% and 0.13% (2×) and 0.08% (2×) and 0.18% and 0.14% (4×) and 0.05% and 0.11% (2×) and 0.25% and 0.16% (2×) and 0.26% and 0.12% and 0.20% (2×) and 0.15% and 0.10% (2×)"},
      {"measurement": "% Recovered Dose - Liver", "setting": "[2]", "value": "4.74% and 36.77% and 4.16% and 1.79% and 1.96% and 2.48% and 3.25% and 1.16% and 8.54% and 3.78% and 4.98% and 7.97% and 5.01% and 6.46% and 4.53% and 6.86% and 4.50% and 3.03% and 5.22% and 3.96% and 5.73% and 8.43% and 7.92% and 6.01%"},
      {"measurement": "% Recovered Dose - Soft Tissue", "setting": "[2]", "value": "1.29% (2×) and 3.31% and 0.99% and 1.94% (2×) and 1.49% and 1.62% and 1.17% and 1.66% and 1.55% and 2.66% and 2.10% and 2.26% and 1.73% and 2.18% and 2.32% and 2.21% and 2.05% and 2.16% and 2.59% and 1.56% and 1.48% and 2.11%"},
      {"measurement": "% Recovered Dose - Total Bone", "setting": "[2]", "value": "11.21% and 32.22% and 14.80% and 15.63% and 16.61% and 16.38% and 18.50% and 17.05% and 13.83% and 18.64% and 18.99% and 15.53% and 21.88% and 21.46% and 21.52% and 18.92% and 19.89% and 17.79% and 12.72% and 18.57% and 20.43% and 17.82% and 20.28% and 18.12%"},
      {"measurement": "% Recovered Dose - Total Feces", "setting": "[2]", "value": "38.27% and 13.76% and 41.57% and 45.81% and 39.56% and 45.73% and 37.01% and 44.68% and 36.23% and 51.20% and 30.57% and 33.16% and 39.74% and 37.31% and 37.09% and 35.70% and 28.28% and 37.36% and 36.24% and 36.31% and 36.22% and 32.51% and 34.94% and 35.74%"},
      {"measurement": "% Recovered Dose - Total Urine", "setting": "[2]", "value": "43.75% and 10.74% and 37.58% and 34.92% and 39.21% and 33.32% and 38.85% and 35.33% and 38.64% and 23.93% and 41.45% and 40.10% and 29.89% and 31.40% and 33.61% and 35.12% and 44.11% and 38.93% and 42.60% and 37.79% and 35.45% and 37.97% and 34.47% and 36.82%"},
      {"measurement": "% Recovered Dose - Feces per Day - Day 2", "setting": "female animals, Day 7 necropsy, Day 2, listed as 3,4,3-LI(1,2-HOPO)", "value": "13.36% and 8.81% and 9.40%"},
      {"measurement": "% Recovered Dose - Feces per Day - Day 3", "setting": "female animals, Day 7 necropsy, Day 3, listed as 3,4,3-LI(1,2-HOPO)", "value": "5.58% and 1.92% and 3.39%"},
      {"measurement": "% Recovered Dose - Feces per Day - Day 4", "setting": "female animals, Day 7 necropsy, Day 4, listed as 3,4,3-LI(1,2-HOPO)", "value": "3.61% and 2.93% and 2.98%"},
      {"measurement": "% Recovered Dose - Feces per Day - Day 5", "setting": "female animals, Day 7 necropsy, Day 5, listed as 3,4,3-LI(1,2-HOPO)", "value": "2.85% and 2.91% and 2.16%"},
      {"measurement": "% Recovered Dose - Feces per Day - Day 6", "setting": "female animals, Day 7 necropsy, Day 6, listed as 3,4,3-LI(1,2-HOPO)", "value": "1.63% and 2.50% and 1.90%"},
      {"measurement": "% Recovered Dose - Feces per Day - Day 7", "setting": "female animals, Day 7 necropsy, Day 7, listed as 3,4,3-LI(1,2-HOPO)", "value": "1.39% and 1.95% and 1.75%"},
      {"measurement": "increase in total 238Pu excretion compared to the control groups", "setting": "female, 6 daily oral treatments, 600 μmol/kg, 11 days post-contamination", "value": "up to 143%"},
      {"measurement": "tissue content of 238Pu compared to saline control group", "setting": "female, all analyzed tissues, all dosing regimens", "value": "large reductions"},
      {"measurement": "full body content of 238Pu compared to saline control groups", "setting": "female, all treated groups", "value": "significant reductions"},
      {"measurement": "decrease in body burden compared to the control groups", "setting": "female, once-daily oral 600 μmol/kg, 11 days post-contamination", "value": "up to 45%"},
      {"measurement": "decorporation efficacy relative to parenteral DTPA", "setting": "female, oral once-daily 300 μmol/kg", "value": "equivalent to that of parenteral treatment with DTPA"},
      {"measurement": "238Pu elimination enhancement", "setting": "female, oral twice-daily 150 and 300 μmol/kg or once-daily 300 and 600 μmol/kg, 7 days post-contamination", "value": "significant"},
      {"measurement": "% Recovered Dose Urine per Day, Day 1", "setting": "[3]", "value": "20.65% and 15.62% and 19.53% and 17.05%"},
      {"measurement": "% Recovered Dose Urine per Day, Day 2", "setting": "[3]", "value": "2.02% and 2.81% and 2.18% and 1.96%"}
    ]}
  ]
}
